Source: patent US8603493B2, “Carbosilane dendrimers, preparation method thereof and use of same” (Dendrico, S.L., priority 2005, dated 2013)

Assays:
ODN PPT = experiment: Stability of the dendriplexes in aqueous solution in accordance with time; type: physicochemical; details: after 24 hours
Procedure: Different samples of dendriplexes were prepared in aqueous solution formed between the ODN PPT and dendrimers IM8, IM16 and NN at a 2/1 charge ratio according to Example 31 and electrophoresis was performed after different times since the preparation of the samples, specifically 0 hours, 6 hours and 24 hours. During those times, the dendriplexes were maintained in conditions which imitate the physiological conditions: 37° C., in 5% CO2 atmosphere. The results are shown in FIG. 5, wherein the gel of FIG. 5a corresponds to the sample of 0 hours, that of FIG. 5b to the samples after 6 hours and that of FIG. 5c to the samples after 24 hours. In the three cases, a, b and c, the samples appear in the lanes following this order: […]

[1] = test system: peripheral blood mononuclear cells (PBMC); experiment: Visual examination of PBMC incubated with dendrimers; type: cell-based, human; details: for visual examination of PBMC: 48 hours
Procedure: (§1) The toxicity of dendrimers IM8, IM16, ClNH4, NN, Phe and the commercial controls SF (Superfect) and G4 were tested. Different quantities were taken of each one of them so that the final concentrations with which the cells were incubated were 1 μM, 5 μM, 10 μM, 20 μM and 100 μM.
(§2) The blood came from adult donors or the umbilical cord of health newborns. Said blood was diluted ½ with PBS and it was centrifuged in a Ficoll gradient. After said centrifugation, the PBMC halo was recovered and two subsequent washing-centrifuging cycles were carried out. The resulting PBMC were resuspended in complete culture medium with 10% FCS, antibiotics and glutamine.
(§3) 100 μl of 10% complete medium of foetal calf serum, antibiotics and glutamine were added to a volume of 60 μl of RPMI with the corresponding dendrimer tested. 160 μl were then added to the cells seeded in 340 μl, completing a final volume of 500 μl. The cells were incubated in this way for 48 hours and then the effect of the incubation with the dendrimers was evaluated by its visual examination and by the evaluation of the mitochondrial activity.

erythrocytes = experiment: Visual examination of erythrocytes (hemagglutination); type: cell-based, human
Procedure: A visual examination was carried out to detect the presence/absence of hemagglutination and quantification of haemoglobin release (haemolysis test) by spectrophotometry. ClNH4 was excluded from the dendrimers of previous Example 38, as the result had been more toxic for lymphocytes, and the results were compared with those produced for a PAMAN type generation 4 dendrimer.
The erythrocytes were obtained after being separated from the PBMC using the same Ficoll gradient cited in the previous Example. They were diluted in PBS to be able to view them individually. The cells were resuspended in 500 μl of PBS and were seeded in a 24-well plate (300,000/well). As positive control, cells treated with 0.2% Triton X-100 were used. Negative control: PBS (blank). The erythrocytes were incubated with different dendrimer concentrations. The presence of hemagglutination, number of cells and release of haemoglobin by hour were evaluated by collecting 100 μl of supernatant and measuring absorbencies by spectrophotometry using a plate reader at a wavelength of 550 nm and 690 nm as reference.

[2] = test system: peripheral blood mononuclear cells (PBMC); experiment: Mitochondrial activity: MTT on PBMC; type: cell-based, human; details: for Cell viability after incubation with dendrimers according to MTT: 48 hours, relative to untreated control; for mitochondrial viability (comparison among dendrimers): increasing concentrations of CBS or SF
Procedure: as §1, §2, §3
A curve of mitochondrial activity was performed of the dendrimer concentration after 48 hours. […] It is a […] test based on the selective capacity of the cells viable for reducing 3-(4,5-dimethylthiazol-2-il)-2,5-diphenyl tetrazolium bromide in insoluble formazan crystals. After 48 hours of incubation of the PBMC with different concentrations of dendrimers in a 96-well plate (100,000/well), the supernatant which contained dendrimer was removed and it was replaced by 200 μl of a culture medium without serum or red phenol (Optimem). To avoid the loss of cells in this step and subsequently of formazan, a modification had been made of the protocol, seeding the PBMC in total human plasma fibronectin (Sigma®) at a concentration of 5-10 μg/ml, so that during the 4-hour incubation they fixed to the bottom of the well. In addition to the 200 μl of Optimem, 20 μl of filtered MTT were added to achieve its sterility (Thiazolyl Blue, Sigma®) in PBS pH 7.4 at a concentration of 5 mg/ml to achieve a final concentration per well of 0.5 mg MTT/ml. After 4 hours of incubation at 37° C. with 5% CO2 atmosphere, the plate was centrifuged at 2000 rpm and the supernatant with the excess MTT that had not reacted was subsequently removed. The formazan crystals were observed under a phase contrast microscope and later dissolved with 200 μl of dimethyl sulfoxide (DMSO). The plate was stirred at 700 rpm in an Eppendorf® stirrer-heater to ensure the correct dissolution of said crystals. The concentration of formazan ([A]) was determined by spectrometry using a plate reader at a wavelength of 570 nm with a reference of 690 nm. The spectrophotometry was calibrated to zero using Optimem without cells. The relative cell viability (%) with respect to the control (untreated cells), based on mitochondrial activity, was calculated based on this formula: [A] test/[A] control×100. Each dendrimer concentration was tested in triplicate, following the guidelines of the ATCC.

PBMC [3] = experiment: Lymphoproliferative test (tritiated thymidine); type: cell-based, human; details: 5 days, average of triplicate
Procedure: To evaluate the antigenic capacity of CBS dendrimers, a lymphoproliferative test was performed. The experiment was prepared in triplicate in a 96-well flat bottomed plate (100,000 cells per well in 200 μl of complete human AB medium with antibiotics, glutamine and 10% AB serum). […] After 5 days of incubation at 37° C. with 5% atmosphere of CO2 100 μl of supernatant was removed, then adding 100 μL of a medium with an isotopic intercalating agent of DNA, tritiated thymidine (prepared with 10% AB medium and Thymidine 1/100). The plate was then filtered using a Harvester passing its content through a filter, which was left to dry overnight (approx. 16 hours). After this period, a sheet of Methylex® containing scintillation medium was heat-melted, and it was read in a gamma camera to evaluate the number of counts (greater the counts, more proliferation). The results, which are shown below in Table 8, are expressed as tritiated thymidine counts per minute (cpm). Each result of each concentration was performed in triplicate, the value which appears in the table being the average of the 3. The PHA and the control were tested 12 times.

PBMC [4] = experiment: Staining with Trypan Blue of PBMC treated with dendriplexes or dendrimers; details: 72 hours, (+/−)=2/1, IM8 3.93 μM, IM16 1.99 μM, ClNH4 3.98 μM, Phe 1.96 μM, NN 3.94 μM, SF 0.68 μM, G4 100 μM, PPT 0.88 μM (0.34 μM with SF, 1 μM with G4), n = 100 cells per count

Row | Compound | ODN released from dendrimer (ODN PPT) | visual examination of PBMC ([1]; 1 μM) | visual examination of PBMC ([1]; 5 μM) | induction of hemagglutination / haemolysis (erythrocytes) | order of hemagglutination from greater to lesser (erythrocytes) | Visual examination of erythrocytes incubated with dendrimers (erythrocytes; 1 μM) | Visual examination of erythrocytes incubated with dendrimers (erythrocytes; 5 μM) | Visual examination of erythrocytes incubated with dendrimers (erythrocytes; 20 μM) | Cell viability after incubation with dendrimers according to MTT ([2]; 1 μM) | Cell viability after incubation with dendrimers according to MTT ([2]; 5 μM) | Cell viability after incubation with dendrimers according to MTT ([2]; 10 μM) | Cell viability after incubation with dendrimers according to MTT ([2]; 20 μM) | Cell viability after incubation with dendrimers according to MTT ([2]; 100 μM) | mitochondrial viability (comparison among dendrimers) [2] | Measurement of the scintillation counter (tritiated thymidine counts) (PBMC [3]; 2 μM) | Measurement of the scintillation counter (tritiated thymidine counts) (PBMC [3]; 5 μM) | TB+ (%), cells stained with Trypan Blue (PBMC [4]) | other results
1 | C[N+](C)(C)CCO[Si](C)(CCC[Si](C)(CCC[Si](CCC[Si](C)(CCC[Si](C)(OCC[N+](C)(C)C)OCC[N+](C)(C)C)CCC[Si](C)(OCC[N+](C)(C)C)OCC[N+](C)(C)C)(CCC[Si](C)(CCC[Si](C)(OCC[N+](C)(C)C)OCC[N+](C)(C)C)CCC[Si](C)(OCC[N+](C)(C)C)OCC[N+](C)(C)C)CCC[Si](C)(CCC[Si](C)(OCC[N+](C)(C)C)OCC[N+](C)(C)C)CCC[Si](C)(OCC[N+](C)(C)C)OCC[N+](C)(C)C)CCC[Si](C)(OCC[N+](C)(C)C)OCC[N+](C)(C)C)OCC[N+](C)(C)C.[I-].[I-].[I-].[I-].[I-].[I-].[I-].[I-].[I-].[I-].[I-].[I-].[I-].[I-].[I-].[I-] [IM16, 2G-[Si(OCH2CH2NMe3^+I^−)2]8] | ~100% | O.K | O.K | induces agglutination | G4>Phe>IM16>IM8>NN | O.K | Ag++ | No cells | 94% | 99% | 63% | 37% | 11% | greater mitochondrial viability | 175 cpm | 141 cpm | 18.5% | visual examination of PBMC ([1]; 10 μM): Cell aggregates +
2 | CN(CCO[Si](C)(C)CCC[Si](C)(CCC[Si](CCC[Si](C)(CCC[Si](C)(C)OCCN(C)CC[N+](C)(C)C)CCC[Si](C)(C)OCCN(C)CC[N+](C)(C)C)(CCC[Si](C)(CCC[Si](C)(C)OCCN(C)CC[N+](C)(C)C)CCC[Si](C)(C)OCCN(C)CC[N+](C)(C)C)CCC[Si](C)(CCC[Si](C)(C)OCCN(C)CC[N+](C)(C)C)CCC[Si](C)(C)OCCN(C)CC[N+](C)(C)C)CCC[Si](C)(C)OCCN(C)CC[N+](C)(C)C)CC[N+](C)(C)C.[I-].[I-].[I-].[I-].[I-].[I-].[I-].[I-] [NN, 2G-[Si(O(CH2)2N(Me)(CH2)2NMe3^+I^−)]8] | ~100% | O.K | O.K | does not | G4>Phe>IM16>IM8>NN | O.K | O.K | No cells | 87% | 68% | 66% | 32% | 9% | greater mitochondrial viability | 145 cpm | 160 cpm | 10.6% | toxicity for the lymphocytes from the visual observation (comparison) [1]: least toxic; biocompatibility profile, toxicity on lymphocytes and erythrocytes taken together (erythrocytes): better biocompatibility profiles; Visual examination of erythrocytes incubated with dendrimers (erythrocytes; 10 μM): Ag+/−
